The record followed here is ChEMBL document CHEMBL3621101 (Medchemcomm, 2014).

The nature of this data set: physchem. The settings on record: pH 7.

On to `CN1CCCN(c2nc(NC3CCN(Cc4ccccc4)CC3)c3sccc3n2)CC1`, for which the pKa came to 5.68.
The result for `c1ccc(CN2CCC(Nc3nc(N4CCCCC4)nc4ccoc34)CC2)cc1` reads 5.31.
The result for `CN1CCN(c2nc(NC3CCN(Cc4ccccc4)CC3)c3ccsc3n2)CC1` reads 3.35.
The same measure for `c1ccc(CN2CCC(Nc3nc(N4CCCCC4)nc4ccccc34)CC2)cc1`: 7.4.
For `CN1CCCN(c2nc3c(c(NC4CCN(Cc5ccccc5)CC4)n2)CCC3)CC1`, the pKa stood at 6.62.
The result for `CN1CCCN(c2nc(NC3CCN(Cc4ccccc4)CC3)c3occc3n2)CC1` reads 4.57.
The result for `CN1CCN(c2nc(NC3CCN(Cc4ccccc4)CC3)c3sccc3n2)CC1` reads 5.77; that for `c1ccc(CN2CCC(Nc3nc(N4CCCCC4)nc4cc5c(cc34)OCO5)CC2)cc1`, 7.45; that for `c1ccc(CN2CCC(Nc3nc(N4CCN(c5ccccn5)CC4)nc4cc5c(cc34)OCO5)CC2)cc1`, 8.08.
The same measure for `COc1cc2nc(N3CCN(C)CC3)cc(NC3CCN(Cc4ccccc4)CC3)c2cc1OC`: 9.84; for `c1ccc(CN2CCC(Nc3nc(N4CCCCC4)nc4nc[nH]c34)CC2)cc1`: 3.73.
As for `c1ccc(CN2CCC(Nc3nc(N4CCN(c5ccccn5)CC4)nc4ccoc34)CC2)cc1`, the pKa came to 5.77.
Compound `CN1CCCN(c2nc(NC3CCN(Cc4ccccc4)CC3)c3[nH]cnc3n2)CC1` gave a pKa of 3.15.
The same measure for `COc1cc2nc(N3CCCN(C)CC3)nc(NC3CCN(Cc4ccccc4)CC3)c2cc1OC`: 8.13; for `CN1CCN(c2nc(NC3CCN(Cc4ccccc4)CC3)c3cc4c(cc3n2)OCO4)CC1`: 5.58.
The result for `c1ccc(CN2CCC(Nc3nc(N4CCCCC4)nc4sccc34)CC2)cc1` reads 3.86.
The same measure for `COc1cc2nc(N3CCCN(C)CC3)cc(NC3CCN(Cc4ccccc4)CC3)c2cc1OC`: 10.6; for `c1ccc(CN2CCC(Nc3nc(N4CCCCC4)nc4ccsc34)CC2)cc1`: 6.42.
`c1ccc(CN2CCC(Nc3nc(N4CCN(c5ccccn5)CC4)nc4ccsc34)CC2)cc1` yielded a pKa of 6.88.
The result for `COc1cc2nc(N3CCN(c4ccccn4)CC3)nc(NC3CCN(Cc4ccccc4)CC3)c2cc1OC` reads 8.1; that for `CN1CCCN(c2nc(NC3CCN(Cc4ccccc4)CC3)c3ccsc3n2)CC1`, 3.28; that for `COc1cc2nc(N3CCCCC3)nc(NC3CCN(Cc4ccccc4)CC3)c2cc1OC`, 7.47.
The result for `CN1CCN(c2nc(NC3CCN(Cc4ccccc4)CC3)c3occc3n2)CC1` reads 4.66; that for `COc1cc2nc(N3CCN(C)CC3)nc(NC3CCN(Cc4ccccc4)CC3)c2cc1OC`, 5.6.
The same measure for `c1ccc(CN2CCC(Nc3nc(N4CCN(c5ccccn5)CC4)nc4ccccc34)CC2)cc1`: 8.03.
`CN1CCN(c2nc(NC3CCN(Cc4ccccc4)CC3)c3ccccc3n2)CC1` came in with a pKa of 5.53.
The same measure for `CN1CCCN(c2nc(NC3CCN(Cc4ccccc4)CC3)c3ccccc3n2)CC1`: 8.06.
